Key:
[1] = target: T1, Cytidine Deaminase (CDA) (Homo sapiens, UniProt P32320, K27Q); assay: HPLC analysis of enzymatic deamination reactions; format: biochemical; conditions: after 60 minutes
[2] = target: T1, Cytidine Deaminase (CDA); assay: CDA-mediated deamination monitored by emission; conditions: for k1 / k2: Michaelis-Menten differential equations; for k−1: Michaelis-Menten, values assumed to be ≤10% of k1 values; for Km: calculated from k1, k−1 and k2
[3] = target: T1, Cytidine Deaminase (CDA); assay: CDA-mediated deamination monitored by absorbance; conditions: for k1 / k2: Michaelis-Menten differential equations; for k−1: Michaelis-Menten, values assumed to be ≤10% of k1 values; for Km: calculated from k1, k−1 and k2
[4] = pseudo-first order fit to emission curves
[5] = pseudo-first order fit, emission (Em)
[6] = pseudo-first order fit to absorption curves
[7] = pseudo-first order fit, absorption (Abs)

T1 sequence (P32320 whole entry K27Q): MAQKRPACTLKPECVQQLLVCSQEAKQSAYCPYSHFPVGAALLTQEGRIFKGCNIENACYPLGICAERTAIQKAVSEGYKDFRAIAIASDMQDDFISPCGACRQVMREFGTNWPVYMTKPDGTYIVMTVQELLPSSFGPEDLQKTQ

`Cc1sc([C@@H]2O[C@H](CO)[C@@H](O)[C@H]2O)c2[nH]c(=O)nc(N)c12` [^mthC] was tested, and the “conversion to corresponding U analogue by CDA (HPLC)” value [1] was “complete conversion”, the k1 ([2]; emission (Em)) was 710000 ± 180000 M⁻¹ s⁻¹ and the k2 ([2]; emission (Em)) was 45 ± 2.3 s⁻¹. The “k−1” value ([2]; emission (Em)) was 0.071 s⁻¹, the Km ([2]; emission (Em)) was 63 µM and the kapp [2, 4] was 5.7 ± 0.1 s^–1. For the same molecule, the kapp [2, 5] was 5.7 ± 0.1 x 10^−3 s^−1, the t1/2 [2, 5] was 2 ± 0.13 min and the k1 ([3]; absorption (Abs)) was 750000 ± 160000 M⁻¹ s⁻¹. For the same molecule, the k2 ([3]; absorption (Abs)) was 56 ± 5.9 s⁻¹, the “k−1” value ([3]; absorption (Abs)) was 0.075 s⁻¹ and the Km ([3]; absorption (Abs)) was 75 µM. The kapp [3, 6] was 6.1 ± 0.2 s^–1, the kapp [3, 7] was 6.1 ± 0.2 x 10^−3 s^−1 and the t1/2 [3, 7] was 1.83 ± 0.033 min.
`Nc1nc(=O)[nH]c2c([C@@H]3O[C@H](CO)[C@@H](O)[C@H]3O)scc12` [^thC] was tested, and the “conversion to corresponding U analogue by CDA (HPLC)” value [1] was “complete conversion”, the k1 ([2]; emission (Em)) was 950000 ± 140000 M⁻¹ s⁻¹ and the k2 ([2]; emission (Em)) was 46 ± 5.3 s⁻¹. The “k−1” value ([2]; emission (Em)) was 0.095 s⁻¹, the Km ([2]; emission (Em)) was 49 µM and the kapp [2, 4] was 7.4 ± 0.1 s^–1. For the same molecule, the kapp [2, 5] was 7.4 ± 0.1 x 10^−3 s^−1, the t1/2 [2, 5] was 1.57 ± 0.033 min and the k1 ([3]; absorption (Abs)) was 1.01e+06 ± 470000 M⁻¹ s⁻¹. The k2 ([3]; absorption (Abs)) was 34 ± 7.2 s⁻¹, the “k−1” value ([3]; absorption (Abs)) was 0.101 s⁻¹ and the Km ([3]; absorption (Abs)) was 34 µM. The kapp [3, 6] was 7.2 ± 0.2 s^–1, the kapp [3, 7] was 7.2 ± 0.2 x 10^−3 s^−1 and the t1/2 [3, 7] was 1.53 ± 0.083 min.
For `Nc1nc(=O)[nH]c2c([C@@H]3O[C@H](CO)[C@@H](O)[C@H]3O)snc12` [^tzC], the “conversion to corresponding U analogue by CDA (HPLC)” value [1] was “complete conversion”, the k1 ([2]; emission (Em)) was 1.06e+06 ± 320000 M⁻¹ s⁻¹ and the k2 ([2]; emission (Em)) was 4.6 ± 1.3 s⁻¹. The “k−1” value ([2]; emission (Em)) was 0.106 s⁻¹, the Km ([2]; emission (Em)) was 4.4 µM and the kapp [2, 4] was 4.1 ± 0.1 s^–1. For the same molecule, the kapp [2, 5] was 4.1 ± 0.1 x 10^−3 s^−1, the t1/2 [2, 5] was 2.83 ± 0.167 min and the k1 ([3]; absorption (Abs)) was 1.04e+06 ± 10000 M⁻¹ s⁻¹. For the same molecule, the k2 ([3]; absorption (Abs)) was 3.2 ± 0.3 s⁻¹, the “k−1” value ([3]; absorption (Abs)) was 0.104 s⁻¹ and the Km ([3]; absorption (Abs)) was 3.1 µM. The kapp [3, 6] was 3.3 ± 0.1 s^–1, the kapp [3, 7] was 3.3 ± 0.1 x 10^−3 s^−1 and the t1/2 [3, 7] was 3.5 ± 0.267 min.
